Reference: ChEMBL document CHEMBL1201862, “PubChem BioAssay data set” (2004)
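Cells were grown in 96-well plates and exposed to each compound for 48 hours at five concentrations; endpoints were interpolated linearly between bracketing concentrations, or set to the highest concentration if not reached. Here, GI50 denotes the concentration required for 50% inhibition of growth.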 Activity calls are given as the source filed them. Cut-off read from the data, not from the text of the source: active = GI50 up to about 1.1 µM and inactive = higher.

Assays:
Test in all cases: NCI anticancer screen, dose series, 48 h
SW-620 = tested on: SW-620
HL-60 = tested on: HL-60
PC-3 = tested on: PC-3
SNB-75 = tested on: SNB-75
MCF7 = tested on: MCF7
SF-539 = tested on: SF-539
UACC-257 = tested on: UACC-257
OVCAR-8 = tested on: OVCAR-8
RPMI-8226 = tested on: RPMI-8226
A549 = tested on: A549
OVCAR-3 = tested on: OVCAR-3
TK-10 = tested on: TK-10
Malme-3M = tested on: Malme-3M
COLO 205 = tested on: COLO 205
A498 = tested on: A498
KM12 = tested on: KM12
SF-268 = tested on: SF-268
HOP-62 = tested on: HOP-62
SNB-19 = tested on: SNB-19
SR = tested on: SR

Measured: GI50

CC(C)=NNc1snnc1C(N)=O
inactive: SW-620 > 10 µM | HL-60 > 100 µM | PC-3 > 100 µM | SNB-75 > 100 µM | MCF7 > 100 µM | SF-539 > 100 µM | UACC-257 > 100 µM | OVCAR-8 > 100 µM | RPMI-8226 > 100 µM | A549 > 100 µM | OVCAR-3 > 100 µM | TK-10 > 100 µM | Malme-3M > 100 µM | COLO 205 > 100 µM | A498 > 100 µM | KM12 > 100 µM | SF-268 > 100 µM | HOP-62 > 100 µM | SNB-19 > 100 µM

O=c1cc(NNc2ccc(F)cc2)[nH]c(=O)[nH]1
inactive: SW-620 17.5 µM | HL-60 6.65 µM | PC-3 16.6 µM | SNB-75 12.7 µM | SF-539 21.5 µM | UACC-257 > 100 µM | OVCAR-8 23.1 µM | RPMI-8226 11 µM | A549 18.3 µM | OVCAR-3 16.4 µM | TK-10 22 µM | Malme-3M 19.8 µM | COLO 205 16.5 µM | SR 35.1 µM | A498 35.3 µM | KM12 11.7 µM | SF-268 20 µM | HOP-62 17.1 µM | SNB-19 19.3 µM

CC#CS(=O)(=O)c1ccccc1
inactive: SW-620 3.78 µM | HL-60 1.8 µM | PC-3 12.1 µM | SNB-75 3.01 µM | MCF7 6.87 µM | SF-539 4.08 µM | UACC-257 2.88 µM | OVCAR-8 3.02 µM | A549 16.1 µM | OVCAR-3 1.63 µM | TK-10 4.92 µM | Malme-3M 2.88 µM | COLO 205 11.2 µM | A498 15.4 µM | SF-268 15.9 µM | HOP-62 21.7 µM | SNB-19 14.2 µM

CCc1n[nH]c(=O)n1/N=C/c1ccc(/C=N/n2c(CC)n[nH]c2=O)cc1
inactive: SW-620 > 100 µM | HL-60 > 100 µM | PC-3 > 100 µM | MCF7 > 100 µM | UACC-257 > 100 µM | OVCAR-8 > 100 µM | RPMI-8226 > 100 µM | A549 > 100 µM | OVCAR-3 > 100 µM | TK-10 > 100 µM | Malme-3M > 100 µM | COLO 205 > 100 µM | A498 > 100 µM | KM12 > 100 µM | SF-268 > 100 µM | HOP-62 > 100 µM | SNB-19 > 100 µM

COc1cc([C@@H]2c3cc4c(cc3[C@H](OC3OC5COC(c6ccco6)OC5C(O)C3O)C3COC(=O)[C@@H]32)OCO4)cc(OC)c1OC (some centres undefined)
inactive: SW-620 3.5 µM | HL-60 4.05 µM | PC-3 3.48 µM | SNB-75 > 100 µM | MCF7 3.85 µM | SF-539 2.74 µM | UACC-257 5.24 µM | OVCAR-8 14.2 µM | RPMI-8226 7.01 µM | A549 3.79 µM | OVCAR-3 3.21 µM | TK-10 > 100 µM | Malme-3M 22.3 µM | COLO 205 4.06 µM | A498 2.29 µM | KM12 4.48 µM | SF-268 8.2 µM | HOP-62 7.89 µM | SNB-19 3.9 µM

O=C1C=Cc2c1csc2Br
inactive: SW-620 22.3 µM | PC-3 65.3 µM | SNB-75 > 100 µM | MCF7 24.9 µM | UACC-257 67.3 µM | OVCAR-8 38.2 µM | A549 41.5 µM | OVCAR-3 71 µM | TK-10 65 µM | Malme-3M 38.1 µM | COLO 205 64.7 µM | SR 10.6 µM | KM12 50.8 µM | SF-268 86.9 µM | HOP-62 > 100 µM | SNB-19 70.3 µM

O=[N+]([O-])c1cc(Cl)cnc1Br
inactive: SW-620 3.42 µM | HL-60 3.44 µM | PC-3 7.53 µM | MCF7 1.32 µM | SF-539 2.05 µM | UACC-257 9.48 µM | OVCAR-8 2.12 µM | RPMI-8226 2.84 µM | A549 2.67 µM | OVCAR-3 2.38 µM | TK-10 3.22 µM | Malme-3M 10.9 µM | COLO 205 1.34 µM | A498 17.1 µM | KM12 4.03 µM | SF-268 2.64 µM | HOP-62 18.3 µM | SNB-19 9.71 µM

O=NN(CCCl)C(=O)NC1CCCCC1 [LOMUSTINE]
inactive: SW-620 27.7 µM | HL-60 17.3 µM | PC-3 32.4 µM | SNB-75 37.2 µM | MCF7 35.5 µM | SF-539 24 µM | UACC-257 54.2 µM | OVCAR-8 52.2 µM | RPMI-8226 16.9 µM | A549 51.6 µM | OVCAR-3 66.2 µM | TK-10 73.1 µM | Malme-3M 57.8 µM | COLO 205 41.2 µM | A498 74.3 µM | KM12 71.4 µM | SF-268 24.5 µM | HOP-62 61.7 µM | SNB-19 52.5 µM

CCCCCCCCCCCCCCCCCCNC(=O)C(N)Cc1ccc(OCc2ccccc2)cn1 (centres undefined)
inactive: SW-620 23.2 µM | HL-60 15.7 µM | PC-3 14.2 µM | SNB-75 27.4 µM | MCF7 19.4 µM | UACC-257 19.1 µM | OVCAR-8 15.8 µM | RPMI-8226 18.5 µM | A549 19.5 µM | OVCAR-3 25.4 µM | TK-10 15.4 µM | Malme-3M 20.6 µM | COLO 205 15.4 µM | A498 20.3 µM | KM12 18.6 µM | SF-268 21.9 µM | HOP-62 19 µM | SNB-19 19.8 µM

CC1CC/C(=C\c2ccc(Cl)cc2)C2OC(N)=C(C#N)C(c3ccc(Cl)cc3)=C12 (centres undefined)
inactive: SW-620 21.4 µM | HL-60 2.88 µM | PC-3 11.9 µM | MCF7 11.4 µM | SF-539 14.3 µM | UACC-257 31.6 µM | OVCAR-8 13.9 µM | RPMI-8226 7.6 µM | OVCAR-3 11.7 µM | TK-10 25.7 µM | Malme-3M 14.5 µM | COLO 205 12.5 µM | KM12 11.7 µM | SF-268 13.2 µM | HOP-62 2.18 µM | SNB-19 20.4 µM

COC(=O)C1=CC(=O)OC1(OO)c1ccc(Br)cc1 (centres undefined)
inactive: SW-620 62.8 µM | HL-60 40.3 µM | PC-3 > 100 µM | SNB-75 > 100 µM | MCF7 > 100 µM | SF-539 > 100 µM | UACC-257 > 100 µM | OVCAR-8 > 100 µM | A549 > 100 µM | OVCAR-3 > 100 µM | TK-10 > 100 µM | Malme-3M > 100 µM | COLO 205 44.3 µM | SR 55.8 µM | KM12 > 100 µM | SNB-19 > 100 µM
